Reference: patent publication US20140288040A1, “SUBSTITUTED BENZYLAMINE COMPOUNDS, THEIR USE IN MEDICINE, AND IN PARTICULAR THE TREATMENT OF HEPATITIS C VIRUS (HCV) INFECTION” (ASTEX THERAPEUTICS LIMITED, priority 2011, published 2014)
Counter-ions that a name gives are not always drawn. Like-named read-outs stand apart in the source and are kept apart here.

Experiments:
[1] = molecular target: T1, HCV NS3 protease (full length NS34a) (Hepatitis C virus genotype 1b, UniProt P26663); test: HCV NS3 protease assay (FRET, full length NS34a); format: biochemical
T1 construct: The protease activity of the full length NS34a was measured using a FRET-based assay; made in house
T1 sequence (P26663 1658-1711): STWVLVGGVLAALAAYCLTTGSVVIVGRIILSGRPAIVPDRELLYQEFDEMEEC
T1 sequence (P26663 1027-1657): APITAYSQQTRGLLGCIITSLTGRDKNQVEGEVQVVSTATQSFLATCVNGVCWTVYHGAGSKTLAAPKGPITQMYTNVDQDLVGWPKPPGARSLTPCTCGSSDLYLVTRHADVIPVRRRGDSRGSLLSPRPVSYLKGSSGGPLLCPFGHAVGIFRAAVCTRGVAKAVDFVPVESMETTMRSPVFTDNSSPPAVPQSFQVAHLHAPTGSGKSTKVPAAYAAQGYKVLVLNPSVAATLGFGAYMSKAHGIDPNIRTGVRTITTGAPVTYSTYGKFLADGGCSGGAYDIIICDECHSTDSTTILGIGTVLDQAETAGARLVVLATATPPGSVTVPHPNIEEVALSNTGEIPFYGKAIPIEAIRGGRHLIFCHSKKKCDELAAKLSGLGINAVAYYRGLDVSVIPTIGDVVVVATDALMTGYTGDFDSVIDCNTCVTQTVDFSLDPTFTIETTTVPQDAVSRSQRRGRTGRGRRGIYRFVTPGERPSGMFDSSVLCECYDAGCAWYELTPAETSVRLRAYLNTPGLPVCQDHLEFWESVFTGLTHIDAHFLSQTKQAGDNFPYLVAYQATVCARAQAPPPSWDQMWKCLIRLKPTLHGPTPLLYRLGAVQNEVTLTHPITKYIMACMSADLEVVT
In short: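 FRET readout over 30 minutes at room temperature, with IC50 fitted to initial rates from replicate curves. Enzyme was full-length NS34a; substrate a peptide from the NS4AB cleavage site labelled with QXL520 and 5-FAMsp; buffer 50 mM Tris pH8 containing 20 mM DTT, 1% CHAPS, 10% glycerol and 5% DMSO.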

[2] = tested on: HCV subgenomic replicon in Huh-7 cells; test: Replicon assay, EC50 luciferase readout; format: cell-based, hepatitis C virus (HCV); settings: Hepatitis C virus, Huh-7, 72 h, Huh-7 replicon cells, 72 h; single value, or second value of a pair x:y; read-out: Activity EC50 (μM) (EC50 luciferase readout)
Method: The activities of compounds of the invention against HCV in a cellular environment were analysed using a replicon assay as described below.
Thus, Huh-7 cells persistently infected with an HCV-RNA construct (Bartenschlager, R. Hepatitis C replicons: potential role for drug development. Nature Rev. Drug Discov. 1, 911-916 (2002)) comprising: 5′ and 3′ non-translated regions (NTR); the non-structural genes NS3 to NS5b; as well as the G418 drug resistance gene, neomycin, (for selection of cells carrying HCV replicon RNA) fused to the firefly Luciferase reporter gene (pFK13889luc-ubi-neoNS3-3′ET), were used to determine the cell based antiviral activity of compounds using luciferase activity as an indirect readout of HCV RNA load. In this assay […] huh-7 cells persistently infected with the HCV subgenomic replicon construct above were platedwell in a 96 well tissue culture plate. The cells were allowed to attach overnight in DMEM medium supplemented with 10% FBS 1% NEAA, and 250 μgml gentamicin. The following day the medium was replaced with 200 μlwell of fresh medium as described above lacking gentamicin. […] Plates were then incubated at 37° C. in an atmosphere of 5% CO2 and air for 72 h. […] The plate was then read at 535 nm (excitation) and 590 nm (emission) on a SpectraMax Gemini reader (Molecular Devices) to determine the number of viable cells by measuring the conversion of rezasurin (Alamar blue) to resorufin in response to mitochondrial activity. In order to determine the antiviral effect of these compounds EC50 values were determined by measuring the luciferase activity of the cells. Alamar blue solution was removed from the wells and replaced with 100 μlwell of medium along with 100 μlwell of Bright-Glo reagent and incubated at room temperature for 5 minutes before transferring 100 μlwell to a white bottom 96 well plate to read in a luminometer as described in the Bright-Glo Luciferase Assay System protocol (promega).

[3] = protease activity of full length NS34a, FRET peptide substrate, read-out: Activity IC50
[4] = IC50 values of 10-150 μM against the protease activity of the full length NS34a, or at least 40% inhibition of protease activity at a concentration of 100 μM

| Structure (SMILES) | IC50 [1, 3] | EC50 [2] | IC50 [1, 4] | inhibition at 0.01 µM ([1]; read-out: Activity % inhibition @ 0.01 μM) |
| --- | --- | --- | --- | --- |
| CC[C@@H](N[C@@H](C)CC(N)=O)c1ccc(Cl)c(Oc2ccc(C#N)c(C)c2)c1F [Example 237] | 0.087 µM | 0.031 µM |  |  |
| CC[C@@H](N[C@@H](C)CC(N)=O)c1ccc(Cl)c(Oc2ccc(C)nc2)c1F [Example 313] | 0.15 µM | > 10 µM |  |  |
| CC[C@H](N)c1ccc(Cl)c(Oc2ccc(N)nc2)c1F [Example 114] | 1 µM | > 10 µM |  |  |
| C[C@@H](CC(=O)NCCN)N[C@H](CC1CCOCC1)c1ccc(Cl)c(Oc2ccccc2)c1F [Example 277, (S)—N-(2-Amino-ethyl)-3-[(R)-1-(4-chloro-2-fluoro-3-phenoxy-phenyl)-2-(tetrahydro-pyran-4-yl)-ethylamino]-butyramide.dihydrochloride] | 0.11 µM | 1 µM |  |  |
| CCC[C@H](N)c1ccc(Cl)c(Oc2ccccc2)c1F [Example 119] | 0.32 µM | 3.4 µM |  |  |
| CCC(NCc1cc[nH]n1)c1ccc(F)c(Oc2ccccc2)c1F (stereo not shown) [Example 21] |  | > 30 µM | 10 to 150 µM |  |
| N[C@H]1CC[C@@H](NCc2cccc(Oc3ccccc3)c2)CC1 [Example 281] | 10 µM | 0.79 µM |  |  |
| N[C@H]1CC[C@H](NCc2cccc(Oc3ccccc3)c2)CC1 [Example 280] | 5.3 µM | 0.4 µM |  |  |
| CC[C@H](N[C@H](C)CC(N)=O)c1ccc(Cl)c(Oc2ccccc2)c1Cl [Example 325] |  | > 10 µM | 10 to 150 µM |  |
| CC[C@@H](N[C@@H](C)CC(=O)NC)c1ccc(Cl)c(Oc2ccccc2)c1F [Example 131A, (S)-3-[(R)-1-(4-Chloro-2-fluoro-3-phenoxy-phenyl)-propylamino]-N-methyl-butyramide.hydrochloride] | 1.2 µM | > 10 µM |  |  |
| CC[C@@H](N[C@@H](C)c1ccc[nH]c1=O)c1ccc(Cl)c(Oc2ccccc2)c1F (single isomer, unassigned) [Example 315] | 3.5 µM | > 10 µM |  |  |
| N[C@@H](CC1CCNCC1)c1ccc(F)c(Oc2ccccc2)c1F [Example 93] | 0.79 µM | 1.8 µM |  |  |
| CC[C@H](N)c1ccc(Cl)c(Oc2ccccc2)c1F [Example 77] | 0.59 µM | 12 µM |  |  |
| NC(CC1CCNCC1)c1ccc(F)c(Oc2ccccc2)c1F (stereo not shown) [Example 72B, 1-(2,4-Difluoro-3-phenoxy-phenyl)-2-piperidin-4-yl-ethylamine. dihydrochloride] | 0.7 µM | 0.26 µM |  |  |
| CC[C@@H](N[C@@H](C)CC(=O)NC1CCNCC1)c1ccc(Cl)c(Oc2ccccc2)c1F [Example 264] | 4.6 µM | 0.6 µM |  |  |
| CC(CO)NC(c1ccc(F)c(Oc2ccccc2)c1F)C1CCNCC1 (single isomer, unassigned) [Example 75, 2-{[(2,4-Difluoro-3-phenoxy-phenyl)-piperidin-4-yl-methyl]-amino}-propan-1-ol.dihydrochloride] | 3.3 µM | 4.8 µM |  |  |
| CC(C)C(N)c1ccc(F)c(Oc2ccccc2)c1F (stereo not shown) [Example 1, 1-(2,4-Difluoro-3-phenoxy-phenyl)-2-methyl-propylamine. hydrochloride] | 2.5 µM | 15 µM |  |  |
| CC[C@H](NCCC(=O)NCC#N)c1ccc(F)c(Oc2ccccc2)c1F [Example 91, N-Cyanomethyl-3-[(S)-1-(2,4-difluoro-3-phenoxy-phenyl)-propylamino]-propionamide.hydrochloride] | 2.4 µM | > 10 µM |  |  |
| CC[C@H](NCCO)c1ccc(F)c(Oc2ccccc2)c1F [Example 100, 2-[(S)-1-(2,4-Difluoro-3-phenoxy-phenyl)-propylamino]-ethanol.trifluoroacetate] | 1.1 µM | > 18 µM |  |  |

| Structure (SMILES) | IC50 [1, 3] | EC50 [2] | IC50 [1, 4] | inhibition at 0.01 µM ([1]; read-out: Activity % inhibition @ 0.01 μM) |
| --- | --- | --- | --- | --- |
| NC(c1ccc(F)c(Oc2ccccc2)c1F)C1CCNCC1 (stereo not shown) [Example 14, C-(2,4-Difluoro-3-phenoxy-phenyl)-C-piperidin-4-yl-methylamine. dihydrochloride] | 1.7 µM | 2 µM |  |  |
| CCC(NC(C)CC(N)=O)c1ccc(F)c(Oc2ccccc2)c1F (stereo not shown) [Example 66] | 0.75 µM | > 30 µM |  |  |
| CC[C@@H](N[C@@H](C)CC(N)=O)c1ccc(Cl)c(Oc2ccc(N)c(Cl)c2)c1F [Example 266C, (S)-3-{(R)-1-[3-(4-Amino-3-chloro-phenoxy)-4-chloro-2-fluoro-phenyl]-propyl-amino}-butyramide.dihydrochloride] | 0.087 µM | 0.023 µM |  |  |
| CC[C@H](N[C@@H](C)CC(N)=O)c1ccc(Cl)c(Oc2ccccc2)c1Cl [Example 324] | 1.8 µM | > 10 µM |  |  |
| NC(C1=CCNCC1)c1ccc(F)c(Oc2ccccc2)c1F (stereo not shown) [Example 13, C-(2,4-Difluoro-3-phenoxy-phenyl)-C-(1,2,3,6-tetrahydro-pyridin-4-yl)-methylamine. dihydrochloride] | 3.1 µM | 2 µM |  |  |
| CC(C)NCC(N)c1ccc(F)c(Oc2ccccc2)c1F (stereo not shown) [Example 19, 1-(2,4-Difluoro-3-phenoxy-phenyl)-N*2*-isopropyl-ethane-1,2-diamine. dihydrochloride] | 9.8 µM | 10 µM |  |  |
| N[C@H](CC1CCNCC1)c1ccc(F)c(Oc2ccccc2)c1F [Example 82] | 1.9 µM | 0.79 µM |  |  |
| Cc1cc(Oc2c(F)ccc(CN[C@H]3CC[C@@H](N)CC3)c2F)ccc1N [Example 288] | 1.4 µM | 1.4 µM |  |  |
| CC[C@@H](N)c1ccc(F)c(Oc2ccccc2)c1F [Example 11] | 2.2 µM | 0.8 µM |  |  |
| CC[C@@H](N[C@H](C)CC(N)=O)c1ccc(Cl)c(Oc2ccc(N)c(C)c2)c1F [Example 128] | 1.2 µM | > 10 µM |  |  |
| CC[C@@H](N[C@@H](C)CC(N)=O)c1ccc(Cl)c(Oc2ccc([N+](=O)[O-])cc2)c1F [Example 201] | 0.2 µM | > 10 µM |  |  |
| CC[C@@H](N[C@@H](C)CC(N)=O)c1ccc(Cl)c(Oc2ccc(N)c(F)c2)c1F [Example 333] | 0.061 µM | 0.057 µM |  |  |
| CC[C@@H](N)c1ccc(Cl)c(Oc2ccc(N)c(C)c2)c1F [Example 112, 4-[3-((R)-1-Amino-propyl)-6-chloro-2-fluoro-phenoxy]-2-methyl-phenylamine.dihydrochloride] | 0.16 µM | > 10 µM |  |  |
| C[C@@H](CO)N[C@@H](CC1CCNCC1)c1ccc(F)c(Oc2ccccc2)c1F [Example 96] | 6.7 µM | 0.24 µM |  |  |
| CC[C@@H](N[C@@H](C)CC(N)=O)c1ccc(Cl)c(Oc2ccc(C#N)c(F)c2)c1F [Example 213] | 0.13 µM | 5.2 µM |  |  |
| CC[C@@H](N[C@@H](C)C(=O)NCCN)c1ccc(Cl)c(Oc2ccccc2)c1F [Example 9, (S)—N-(2-Amino-ethyl)-2-[(R)-1-(4-chloro-2-fluoro-3-phenoxy-phenyl)-propylamino]-propionamide dihydrochloride] |  | 10 µM |  | 40.5% |
| CC[C@@H](N[C@H](CC(N)=O)C1CC1)c1ccc(Cl)c(Oc2ccccc2)c1F [Example 165] |  | > 10 µM | 10 to 150 µM |  |
| CC[C@@H](N[C@@H](C)CC(N)=O)c1ccc(Cl)c(Oc2ccc(C(N)=O)nc2)c1F [Example 249] | 0.38 µM | 4.6 µM |  |  |
| CCC(NCCC1CCCNC1)c1ccc(F)c(Oc2ccccc2)c1F (stereo not shown) [Example 27] | 1 µM | 0.26 µM |  |  |
